The text below walks through data of PMC11898650, “Morpholine-Substituted Tetrahydroquinoline Derivatives as Potential mTOR Inhibitors: Synthesis, Computational Insights, and Cellular Analysis” (Cancers, 2025).

In experiment [1] the test system is triple-negative breast cancer (MDA-MB-231) cell line. Description: MTT antiproliferative assay, MDA-MB-231. Format: cell-based, human. To be noted: 48 h; for IC50: Homo sapiens. The protocol:
(§1) To evaluate the antiproliferative activity of the synthesized tetrahydroquinoline derivatives, three distinct human cancer cell lines were selected: breast cancer (MCF-7), lung cancer (A-549), and triple-negative breast cancer (MDA-MB-231). Furthermore, the synthesized compounds were tested on the VERO cell line to assess their potential toxicity. The VERO cell line, commonly derived from the kidney of an adult African green monkey, is widely used for toxicity studies. To evaluate the toxicity of the synthesized compounds, this cell line was utilized in the present study. The VERO cells were cultured using […] medium. The F-12 Ham’s medium was used to cultivate the lung cancer (A-549) cell lines. DMEM was used to cultivate the cell lines for breast cancer (MCF-7) and triple-negative breast cancer (MDA-MB-231). Because it feeds the cell line, 5% fatal bovine serum (FBS) was used to make the whole medium. To further protect the cell line from contamination, 0.5% pen–strep (penicillin + streptomycin) was added to all the mediums. All of these cell lines were cultivated in sterile, vented T-75 and/or T-25 flasks that were kept at 37 °C and supplied with 5% CO2. All of the compounds’ stock solutions were prepared in DMSO, and dilutions were made in the appropriate media so that the 96-well plates’ final DMSO content was not greater than 0.1%. First, each drug was tested in triplicate against every cell line at a 25 µM dose. […] On the first day, 1 × 10^4 cells were planted, and 24 h later, the chemicals were added. The MTT dye was added after the compounds and cells had been cultured for 48 h. After four hours, the MTT dye was taken out of the wells. Each well received 100 µL of DMSO to dissolve the formazan crystals that had formed as a result of the living cells, and absorbance at 570 nm was measured.

Experiment [2] has as its system breast cancer (MCF-7) cell line. As to the kind of experiment: MTT antiproliferative assay, MCF-7. The following applies: Homo sapiens, MCF7, 48 h. Format: cell-based. The protocol: as §1
The test system of experiment [3] is lung cancer (A-549) cell line. As to the kind of experiment: MTT antiproliferative assay, A549. The following applies: 48 h; for IC50: Homo sapiens. Format: cell-based, human. The protocol:
as §1

A further experiment relates to VERO cell line. As to the kind of experiment: MTT toxicity assay, VERO. Format: cell-based, African green monkey. The following applies: Chlorocebus sabaeus, 48 h, VERO normal cells. How it is done: as §1
The subject of a further experiment is A549 lung cancer cells. Description: Annexin V-FITC/PI apoptosis assay by flow cytometry. Type of experiment: cell-based, human. To be noted: 48 h. How it is done:
A549 lung cancer cells were seeded in six-well plates and cultured in F-12 Ham’s medium supplemented with 5% FBS, 0.5% penicillin–streptomycin, and maintained in a 5% CO2 atmosphere at 37 °C for 24 h. […] Each condition was maintained in duplicate, with DMSO serving as the vehicle control, while 5-fluorouracil and Everolimus were used as positive controls. The treated cells, along with the DMSO control group, were incubated for 48 h. After incubation, the media were removed, and 1 mL of trypsin was added to each well for approximately one minute, followed by neutralization with 4 mL of fresh medium. Subsequent steps were carried out following the protocol of the Annexin V-FITC apoptosis detection kit (Ref No: BMS500FI, Lot No: 264043; Invitrogen, Waltham, MA, USA). The contents of each well were collected and transferred to centrifuge tubes, followed by centrifugation at 1000 RPM for 8 min. After removing the supernatant, the cell pellets were washed with PBS and subjected to another centrifugation step. The pellets were then resuspended in 1 mL of 1× binding buffer from the Annexin V-FITC apoptosis detection kit and incubated in the dark for 15–20 min. Subsequently, 500 µL of this cell suspension was transferred to individual plastic flow cytometry tubes. Each tube was supplemented with 10 µL of propidium iodide (PI) and 5 µL of Annexin V-FITC conjugate. The tubes were then incubated in the dark for 10 min before analyzing cell apoptosis using flow cytometry.

Turning to `O=c1[nH]cc(F)c(=O)[nH]1` [Compound 5-FU, 5-fluorouracil, reference compound], the IC50 in experiment [1] is 3.39 ± 0.37 µM; in experiment [2], 0.72 ± 0.03 µM; in experiment [3], 0.28 ± 0.008 µM; in the experiment on VERO cell line it was greater than 25 µM.

In the case of `O=C(Nc1ccc2c(c1)N(C(=O)C1CCOCC1)CCC2)c1ccc(OC(F)(F)F)cc1` [Compound 10a, N-(1-(Tetrahydro-2H-pyran-4-carbonyl)-1,2,3,4-tetrahydroquinolin-7-yl)-4-(trifluoromethoxy)benzamide], the IC50 in experiment [1] was 8.16 ± 0.33 µM; in experiment [2], 4.34 ± 0.12 µM; in experiment [3], 1.06 ± 0.02 µM; with VERO cell line, greater than 25 µM.

For `O=C(Nc1ccc2c(c1)N(C(=O)C1CCCCC1)CCC2)c1ccc(OC(F)(F)F)cc1` [Compound 10b, N-(1-(Cyclohexanecarbonyl)-1,2,3,4-tetrahydroquinolin-7-yl)-4-(trifluoromethoxy)benzamide], the IC50 in experiment [1] is 6.37 ± 0.19 µM; in experiment [2], greater than 25 µM; in experiment [3], 4.72 ± 0.11 µM; in the experiment with VERO cell line it was 9.82 ± 0.08 µM.

On to `O=C(Nc1ccc2c(c1)N(C(=O)N1CCOCC1)CCC2)c1cc(F)cc(C(F)(F)F)c1` [Compound 10d, 3-Fluoro-N-(1-(morpholine-4-carbonyl)-1,2,3,4-tetrahydroquinolin-7-yl)-5-(trifluoromethyl)benzamide], for which the “apoptosis (early and last phase combined)” value in the experiment with A549 lung cancer cells (A549, 3 µM) stood at 29.35%; with A549 lung cancer cells (A549, 6 µM), 77.66%. Moreover, the IC50 was 1.003 ± 0.008 µM in experiment [1], 0.58 ± 0.11 µM in experiment [2], 0.062 ± 0.01 µM in experiment [3] and greater than 25 µM in the experiment on VERO cell line.

Turning to `O=C(Nc1ccc2c(c1)N(C(=O)N1CCOCC1)CCC2)c1cc(C(F)(F)F)cc(C(F)(F)F)c1` [Compound 10e, N-(1-(Morpholine-4-carbonyl)-1,2,3,4-tetrahydroquinolin-7-yl)-3,5-bis(trifluoromethyl)benzamide], the Necrosis is 0.05% with A549 lung cancer cells (A549, 3 µM) and 0.01% in the experiment with A549 lung cancer cells (A549, 6 µM). Besides, the “apoptosis (early and last phase combined)” value in the experiment with A549 lung cancer cells (A549, 3 µM) is 75.7%. The “Early Apoptosis” value with A549 lung cancer cells (A549, 6 µM) was found to be 70.00%. In the experiment on A549 lung cancer cells (A549, 6 µM), the “Late Apoptosis” value is on record as 20.37%. The IC50 in experiment [1] is 0.63 ± 0.02 µM; in experiment [2], 2.89 ± 0.013 µM; in experiment [3], 0.033 ± 0.003 µM; with VERO cell line it was 8.86 ± 0.03 µM.

In the case of `O=C(Nc1ccc2c(c1)N(C(=O)N1CCCCC1)CCC2)c1cc(F)cc(F)c1` [Compound 10f, 3,5-Difluoro-N-(1-(piperidine-1-carbonyl)-1,2,3,4-tetrahydroquinolin-7-yl)benzamide], the “MDA-MB-231 (IC50 µM)” value in experiment [1] was “no activity”. The half-inhibitory concentration (IC50) in experiment [1] is greater than 25 µM; in experiment [2], 4.47 ± 0.013 µM; in experiment [3], greater than 25 µM; in the experiment on VERO cell line, greater than 25 µM. In addition, in experiment [3], the “A549 (IC50 µM)” value is recorded as “no activity”.

For the compound `O=C(Nc1ccc2c(c1)N(C(=O)N1CCCCC1)CCC2)c1cc(F)cc(C(F)(F)F)c1` [Compound 10g, 3-Fluoro-N-(1-(piperidine-1-carbonyl)-1,2,3,4-tetrahydroquinolin-7-yl)-5-(trifluoromethyl)benzamide], the IC50 in experiment [1] is greater than 25 µM; in experiment [2], 2.5 ± 0.16 µM; in experiment [3], 0.68 ± 0.13 µM; in the experiment on VERO cell line, greater than 25 µM.

Turning to `O=C(Nc1ccc2c(c1)N(C(=O)N1CCCCC1)CCC2)c1cc(C(F)(F)F)cc(C(F)(F)F)c1` [Compound 10h, N-(1-(Piperidine-1-carbonyl)-1,2,3,4-tetrahydroquinolin-7-yl)-3,5 bis(trifluoromethyl)benzamide], the IC50 in experiment [1] is 1.29 ± 0.032 µM; in experiment [2], 0.087 ± 0.007 µM; in experiment [3] it was 3.36 ± 0.71 µM; with VERO cell line it was greater than 25 µM.

`CO[C@H]1C[C@@H]2CC[C@@H](C)[C@@](O)(O2)C(=O)C(=O)N2CCCC[C@H]2C(=O)O[C@H]([C@H](C)C[C@@H]2CC[C@@H](OCCO)[C@H](OC)C2)CC(=O)[C@H](C)/C=C(\C)[C@@H](O)[C@@H](OC)C(=O)[C@H](C)C[C@H](C)/C=C/C=C/C=C/1C` [Everolimus, reference compound]: the IC50 in experiment [1] was 7.76 ± 0.37 µM; in experiment [2], 5.86 ± 0.07 µM; in experiment [3] it was 0.09 ± 0.01 µM; in the experiment on VERO cell line it was greater than 25 µM.
